Data reported in patent US20220177459A1, “AROMATIC AMINE COMPOUND AND USE THEREOF IN PREPARATION OF AR AND BRD4 DUAL INHIBITORS AND REGULATORS” (HINOVA PHARMACEUTICALS INC., priority 2019, published 2022).

Legend:
VCaP cells = assay: Inhibition of proliferation of other prostate cancer cells: VCaP; assay type: cell-based; conditions: Homo sapiens, same method as LNCaP/AR
Experimental: (§1) 1) LNCaP/AR cells were subcultured in cell culture medium, and the cells in good growth condition were seeded in a 96-well plate, with 80 μL per well (i.e. 1000 cells per well), and cultured overnight in a 37° C., 5% CO2 cell incubator.
(§2) Immediately before use, the stock solution was diluted 3 times with DMSO, and then diluted as a 3-fold gradient to obtain 9 concentration gradients. Then, the compound of each concentration was diluted 200 times with the culture media (to ensure that the DMSO concentration in the culture system was 0.1%), and two multiple holes were set for each concentration. 20 μL of the diluted compound was added to the cell culture well (with a final concentration of 10 μM, 3.3 μM, 1.1 μM . . . ), and then shook gently to mix. In addition, three negative control wells with only cells and three blank control wells with only culture medium were included (6 wells being each added with DMSO diluted 200 times with 20 μL culture medium).
(§3) 1) After culturing for 6 days, 10 μL of CCK-8 was added to each well and continued culturing for 1 hour in a 37° C., 5% CO2 cell incubator.
(§4) 2) The absorbance (OD value) was measured at 450 nm using a multifunctional microplate reader.
(§5) 3) The data were analyzed by the Dose-response-inhibition equation in the software GraphPad Prism5, and the IC50 value was obtained.
(§6) 2. Biological determination of the inhibitory effect on the proliferation of other prostate cancer cells
(§7) The inhibitory activity of the compound according to the present invention on other drug-resistant prostate cancer cells was measured by the same method as described above, in which VCaP and 22RV1 cells were commercially available.

LNCaP/AR cells = assay: Inhibition of proliferation of prostate cancer cells LNCaP/AR (CCK-8); assay type: cell-based; conditions: 144 h, 6 days culture, CCK-8, OD 450 nm, read-out: IC50 (μM), inhibitory activity on prostate cancer cell LNCap/AR
Experimental: 1. Biological determination of the inhibitory effect on the proliferation of prostate cancer cells LNCaP/AR
Cell culture medium: RIPM1640 media, 10% FBS, 1% Pen Strep;
as §1
2) The drug was prepared with dimethylsulfoxide (DMSO) as a 10 mM stock solution.
as §2, §3, §4, §5

22RV1 cells = assay: Inhibition of proliferation of other prostate cancer cells: 22RV1; assay type: cell-based; conditions: Homo sapiens, same method as LNCaP/AR
Experimental: as §1, §2, §3, §4, §5, §6, §7

androgen receptor (AR) = target: T1, androgen receptor (AR) (Homo sapiens, UniProt P10275); assay: Inhibitory activity on the function of androgen receptor (AR), luciferase reporter in transfected cells; assay type: cell-based; conditions: transfected with AR and pGL4.36, testosterone 2 nM, Steady-Glo
T1 construct: host or cells: HEK293
T1 sequence (P10275 1-920): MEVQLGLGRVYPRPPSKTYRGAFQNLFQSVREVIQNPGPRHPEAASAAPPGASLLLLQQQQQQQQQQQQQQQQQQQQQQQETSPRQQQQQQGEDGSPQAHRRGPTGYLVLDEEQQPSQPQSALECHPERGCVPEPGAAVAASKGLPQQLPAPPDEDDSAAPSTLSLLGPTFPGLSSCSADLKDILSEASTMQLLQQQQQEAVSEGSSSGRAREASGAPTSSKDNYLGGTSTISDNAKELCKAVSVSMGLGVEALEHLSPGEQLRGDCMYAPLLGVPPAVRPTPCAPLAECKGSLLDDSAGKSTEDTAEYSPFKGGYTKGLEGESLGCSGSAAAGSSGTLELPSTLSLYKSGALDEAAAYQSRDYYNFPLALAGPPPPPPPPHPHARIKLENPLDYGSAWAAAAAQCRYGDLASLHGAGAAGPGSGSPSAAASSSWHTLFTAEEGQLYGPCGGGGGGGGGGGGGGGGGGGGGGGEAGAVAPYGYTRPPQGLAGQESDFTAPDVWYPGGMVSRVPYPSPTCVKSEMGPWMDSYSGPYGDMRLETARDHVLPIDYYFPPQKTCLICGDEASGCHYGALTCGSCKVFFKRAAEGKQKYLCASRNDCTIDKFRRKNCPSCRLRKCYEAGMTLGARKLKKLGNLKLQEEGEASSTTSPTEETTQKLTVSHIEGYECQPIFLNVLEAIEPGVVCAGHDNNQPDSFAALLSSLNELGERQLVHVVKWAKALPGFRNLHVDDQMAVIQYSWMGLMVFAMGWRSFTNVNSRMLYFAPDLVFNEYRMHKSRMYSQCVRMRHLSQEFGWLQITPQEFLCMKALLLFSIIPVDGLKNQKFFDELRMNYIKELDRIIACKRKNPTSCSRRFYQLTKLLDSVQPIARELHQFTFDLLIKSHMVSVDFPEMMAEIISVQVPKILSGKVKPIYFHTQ
Experimental: Experimental Example 2 the Inhibitory Activity of the Compound According to the Present Invention on the Function of Androgen Receptor (AR)
Androgen receptor clone (Origene, Cat. No. RC235415)
pGL4.36 vector (Promega, Cat. No. E1360)
1) The cell suspension was diluted with the culture medium for seeding cells to a concentration of 4.0×10^5 cells/ml, for plating and adding transfection reagents.
2) The diluted cell suspension was inoculated into a cell culture plate, with 100 μL per well, and the plate was placed in a cell incubator and cultured overnight.
3) The transfection reagent was prepared as 10 μL/well, and added into the cell culture plate after 15 min at room temperature, then the plate was placed in a cell incubator and cultured overnight.
4) The compound was diluted by a 3-fold gradient with TECAN sampler, to obtain 8 concentration gradients, and the final DMSO concentration was 0.25%. The diluted compound was cultured in a 37° C. incubator for 30 min.
5) 250 nL of testosterone at a final concentration of 2 nM was added to the control well with an […] sampler, placed in a cell incubator, and cultured overnight.
6) Steady-Glo was added at 100 μL/well to the cell culture plate, and then the plate was left at room temperature for 15 min, followed by reading on Envision.
The data were analyzed according to the formula % Effect=(Sample value−LC)/(HC−LC)*100, using XL-fit software (provided by Business Solutions Ltd., version number XL fit 5.0). The inhibition rate of each compound against androgen receptor (AR) was calculated, and the half-inhibitory concentration IC50 of each compound against androgen receptor (AR) was further calculated.

BRD4 (D1+D2) protein = target: T2, BRD4 (D1+D2) protein (Homo sapiens, UniProt O60885); assay: HTRF binding to BRD4 (D1+D2) protein; conditions: BRD4(1,2), 2 h at room temperature, read-out: IC50 (μM), inhibitory activity on BRD4
T2 construct: purchased BPS 31044
From the text: Homogeneous time-resolved fluorescence technique (HTRF) was used to detect the binding effect of compound to BRD4 (D1+D2) protein.
Experimental materials: • BRD4(1,2) (BPS, Cat. No. 31044), • I-CBP 112 (MCE, Cat. No. HY-19541), • (+)-JQ1 (BPS, Cat. No. 27402).
Using homogeneous time-resolved fluorescence method, the detection steps are as follows:
1. According to the layout of the detection plate, the test compound was gradiently diluted on the Echo plate, and the final dilution concentration of DMSO was 0.1%.
2. The compound or DMSO was transferred to the 384-well detection plate with the Echo automatic sampler.
3. Two-fold concentration of protein and peptide mixture was added to the detection plate.
4. Two-fold concentration of the detection mixture was added to the detection plate, and shook for 30 s.
5. Incubating for 2 h at room temperature.
6. The fluorescence signal was read on the Envision multifunctional microplate reader (excitation wavelength at 340 nm; emission wavelength at 615 nm and 665 nm).
1. The experimental data were entered into an Excel file, and equation (1) was used to calculate the inhibition rate:
Inh %=(Max−Signal)/(Max−Min)*100 Equation (1)
2. The obtained data were input into GraphPad software, and equation (2) was used to calculate the IC50 value.
Y=Bottom+(Top−Bottom)/(1+10^((LogIC50−X)*Hill Slope)) Equation (2)
wherein, Y axis is the inhibition rate, while X axis is the compound concentration.

| SMILES | IC50 (VCaP cells) [µM] | IC50 (LNCaP/AR cells) [µM] | IC50 (22RV1 cells) [µM] | IC50 (androgen receptor (AR)) [µM] | IC50 (BRD4 (D1+D2) protein) [µM] |
| --- | --- | --- | --- | --- | --- |
| CCN(c1ccc(-n2cnc(C)c2)cc1)c1cc(-c2c(C)noc2C)ccc1C [Compound 26] | 1.16 | 1.14 | 4.08 |  |  |
| CCN(c1ccc(-n2ccnc2)c(F)c1)c1cc(-c2c(C)noc2C)ccc1C [Compound 29] | 1.22 | 0.49 | 5.6 | 0.45 |  |
| CCN(c1ccc(C#N)c(Cl)c1)c1cc(-c2c(C)nn(C)c2C)ccc1C [Compound 2] | 0.78 | 0.51 | 5.2 | 0.78 |  |
| CCN(c1ccc(Br)cc1)c1cc(-c2c(C)noc2C)ccc1C [Compound 116] |  | 0.61 | 0.63 | 4.9 |  |
| CCN(c1ccc(-n2cnnc2)cc1)c1cc(-c2c(C)noc2C)ccc1C [Compound 34] | 1 | 0.95 | 2.58 |  |  |
| CCN(c1ccc(-n2ccnn2)cc1)c1cc(-c2c(C)noc2C)ccc1C [Compound 33] | 0.88 | 0.75 | 2.41 |  |  |
| CCN(c1ccc(-n2ccnc2C)cc1)c1cc(-c2c(C)noc2C)ccc1C [Compound 27] | 0.99 | 0.38 | 3.77 | 0.89 | 4.1 |
| CCN(c1ccc(-n2ccnc2)c(C(F)(F)F)c1)c1cc(-c2c(C)noc2C)ccc1C [Compound 32] | 0.98 | 1.4 | 3.5 |  |  |
| CCN(c1ccc(C2(C#N)CC2)cc1)c1cc(-c2c(C)noc2C)ccc1C [Compound 111, 1-(4-((5-(3,5-dimethylisoxazol-4-)-2-methylphenyl)(ethyl)amino)phenyl)cyclopropanecarbonitrile] |  | 0.14 | 0.27 | 1.6 |  |
| CCN(c1ccc(-n2ccnc2)c(Br)c1)c1cc(-c2c(C)noc2C)ccc1C [Compound 31, N-(3-bromo-4-(1H-imidazol-1-yl)phenyl)-5-(3,5-dimethylisoxazol-4-yl)-N-ethyl-2-methylaniline] | 1.35 | 0.54 | 9.37 | 2.1 | 6.3 |
| CCN(c1ccc(-n2ccnc2)c(Cl)c1)c1cc(-c2c(C)noc2C)ccc1C [Compound 30] | 2.27 | 0.9 | > 10 |  |  |
| CCN(c1ccc(C(C)(C)C#N)cc1)c1cc(-c2c(C)noc2C)ccc1C [Compound 110] |  | 0.93 |  | 1.6 |  |
| CCN(c1ccc(-n2ccnn2)c(Br)c1)c1cc(-c2c(C)noc2C)ccc1C [Compound 45] | 0.75 | 0.82 | 7.75 | 1.7 | 1.9 |
| CCN(c1ccc(F)c(-n2ccnc2)c1)c1cc(-c2c(C)noc2C)ccc1C [Compound 83] | 1.27 |  | 5.2 | 0.83 | 6.7 |
